Experimental data from patent publication US20110153302A1, “IDENTIFICATION OF DRUG EFFECTS ON SIGNALING PATHWAYS USING INTEGER LINEAR PROGRAMMING” (Massachusetts Institute of Technology, priority 2009, published 2011).
“Also recorded” adds a separate entry of the source.

Assays:
HepG2 cells = test: Bead-based multiplexed (Luminex xMAP) measurement of 13 key phosphorylation events in cells treated with drugs and ligands; format: cell-based
Protocol: HepG2 cells were purchased from ATCC (Manassas, Va.), and seeded on 96-well plates coated with collagen type I-coated (BD Biosciences, Franklin Lakes, N.J.) at 30,000 cells/well in DME medium containing 10% Fetal Bovine Serum (FBS). The following morning, cells were starved for 4 hours and treated with inhibitors and/or drugs. Kinase inhibitors were used at concentrations sufficient to inhibit at least 95% the phosphorylation of the nominal target as determined by dose-response assays (presented in [17]). […] was chosen as the nominal target for Lapatinib, Erlotinib, and Gefitinib. The following saturated concentrations were used: p38 (PHA818637, 20 nM), MEK (PD325901, 100 nM) and cMET (JNJ38877605, 1 μM), PI3K (PI-103, 10 μM), Lapatinib at 3 uM [47], Erlotinib at 1 uM [47], Gefitinib at 3 uM [47], and Sorafenib at 3 uM (based on its inhibitory activity on ERK1/2 phosphorylation). Following incubation for 45 minutes with inhibitors and/or drugs cells were treated with saturated levels of 5 ligands: Tumor Necrosis Factor alpha (TNFα) at 100 ng/ml, Interleukin 1 alpha (IL1α) at 10 ng/ml, Insulin (INS) at 2 uM, Transforming Growth Factor (TGFα) at 100 ng/ml, and Hepatocytes Growth Factor (HGF) at 100 ng/ml. Each ligand was added alone or in pairs and cell lysates were collected at 0, 5, and 25 minutes following the cytokine stimulation. The 5 and 25 minutes lysates were mixed together in 1:1 ratio and the mixed lysate was measured as an indicator of the “average early signaling response”. The 5 and 25 minute time points were identified in a preliminary experiment as the optimal time points that maximally captured early phosphorylation activities.
(§1) From each lysate we measured 13 phosphorylation activities that we considered “key phosphorylation events” using a Luminex 200 system (Luminex Corp, Austin, Tex.). The 13-plex phospho-protein bead set from Bio-Rad was used to assay p70S6K (Thr421/Ser424), CREB (Ser133), p38 (Thr180/Tyr182), MEK1 (Ser217/Ser221), JNK (Thr183/Tyr185), HSP27 (Ser78), ERK1/2 (Thr202/Tyr204, Thr185/Tyr187), c-JUN (Ser63), IRS-1 (Ser636/Ser639), IκB-α (Ser32/Ser36), Histone H3 (Ser10), Akt (Ser473), and IR-β (Tyr1146). Data were normalized and plotted using with DataRail. For the construction of the dose response curve in FIG. 3i, HepG2 were starved for 4 hours and then incubated with Gefitinib (from 20 uM down to 27 nM-3 fold dilution) for 45 minutes followed by incubation with IL1α at 10 ng/ml final concentration for 30 minutes. Duplicate lysates were analyzed using the c-JUN (Ser63) beads in the Luminex 200 system.
High-throughput bead-based ELISA-type experiments using xMAP technology (Luminex, Tex., USA) are performed as briefly described in the Materials and Methods section and in [17]. We create two datasets: one for the construction of cell-type specific topology and another for the identification of the mechanisms of drug actions. […] For the purpose of this paper, we refer to “inhibitors” as the compounds for which we know the target and we use them in a concentration capable to block ˜95% of the downstream protein. Conversely, we refer to “drugs” as the compounds for which we assume no a-priori knowledge of their target. For each combination of cytokine and drug/inhibitor we collect cell lysates at 5 and 25 minutes. The two time points are pooled together in 1:1 ratio and the mixed lysates are used as an indicator of the “average early signaling response”. For each treatment we measure 13 protein phosphorylations that we consider “key protein activities” (raw data in FIG. 4). The key phosphorylation signals (listed in Materials and Methods) are chosen based on the availability of the reagents and quality controls performed at the early phases of the experimental setup. […]

HepG2 specific topology = test: Drug-induced topology alterations: ILP fit of the HepG2 specific topology to drug-induced phosphoprotein data; conditions: for Drug effect on the JNK→c-JUN branch / Drug effect on downstream reactions of the TGFα branch (TGFα→GRB2→SOS→RAS→PI3K and RAS→RAF1→MEK1/2→ERK1/2): reactions removed from HepG2 topology by ILP, Gefitinib 3 uM; for Effect on c-Jun signaling: summary statement in the personalized medicine section
Excerpt: Here, we describe how the Boolean model described in [18] can be reformulated as an ILP. Note that such a transformation was recently performed for a different problem, namely the satisfiability, by. A pathway is defined as a set of reactions i=1, . . . , nr and species j=1, . . . , ns. Each reaction has three corresponding index sets, namely the index set of signaling molecules Ri, inhibitors Ii, and “products” Pi (“product” can also correspond to the phosphorylation level of the protein). These sets are all subsets of the species index set (Ri,Ii,Pi⊂{1, . . . , ns}). Typically, these subsets have very small cardinality (few species), e.g., |Ri|=0,1,2;|Ii|=0,1;|Pi|=1,2;|Ri|+|Ii|=1,2. A reaction takes place if and only if all reagents and no inhibitors are present. If a reaction takes place, all products are formed. Note that reactions without products as well as reactions with neither reagents nor inhibitors will be excluded here.
While typically the set of species is known, the set of reactions is not known. Rather, only a superset of potential reactions is postulated. The goal of the proposed formulation is to find an optimal (in some sense) set of reactions out of such a superset. To that extent binary variables yi are introduced, indicating if a reaction is possible or not (yi=0 connection not present, yi=1 connection present).
A set of experiments is performed, indexed by the superscript k=1, . . . , ne. In each experiment a subset of species is introduced to the system and another subset is excluded from the system. These are summarized by the index sets M^k,1 and M^k,0 respectively (two for each experiment). In the proposed formulation, constants are introduced for all such species, respectively xj^k=1 and xj^k=0. […] In the experiments a third subset of the species is measured (index set M^k,2) and for the remaining species no information is available. In the proposed formulation for each of the experiments and each such species a binary decision variable xj^kε{0,1} is introduced indicating if the species j is present (xj^k=1) or not (xj^k=0) in the experiment k according to the model predictions. […] This has some computational advantages.
In the present study, our ILP formulation was utilized in two different circumstances. For the creation of the cell-type specific pathway using combinations of inhibitors and stimuli our ILP formulation included 27887 constraints and 9732 variables. For each drug case, where the reduced and optimized pathway was utilized, we had 2477 constraints and 947 variables.
For the identification of the drug effects we make use of the second dataset in HepG2s where drugs are applied together with the same set of ligands. In this case, the ILP formulation is being used with the HepG2 specific topology (topology obtained from the previous step) and not the generic map.

JNK1/2 kinases = conditions: kinase profiles, ref [32]; cited from earlier work
c-JUN (Ser63) = test: Gefitinib dose response of c-JUN (Ser63) signal in HepG2 after IL1α (FIG. 3i); format: cell-based; conditions: Gefitinib 20 uM down to 27 nM, 45 min, IL1α 10 ng/ml, 30 min, linear fit
Excerpt: as §1

RAF/MEK/ERK pathway = conditions: human tumor cell lines, ref [33]; cited from earlier work
p38α = p38α (Homo sapiens, UniProt Q16539); conditions: refs [32],[45]; cited from earlier work
p38α, sequence (Q16539 whole entry): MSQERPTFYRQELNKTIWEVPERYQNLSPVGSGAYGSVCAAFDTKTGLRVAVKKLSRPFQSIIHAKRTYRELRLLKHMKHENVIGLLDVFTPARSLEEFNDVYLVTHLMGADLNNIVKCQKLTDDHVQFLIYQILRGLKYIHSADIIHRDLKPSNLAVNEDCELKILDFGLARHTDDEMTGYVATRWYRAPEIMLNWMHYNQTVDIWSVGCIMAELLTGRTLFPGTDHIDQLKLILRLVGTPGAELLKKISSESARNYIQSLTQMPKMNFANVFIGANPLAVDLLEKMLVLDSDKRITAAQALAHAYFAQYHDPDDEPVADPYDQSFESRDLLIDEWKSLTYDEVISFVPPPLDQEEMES

SMILES	IκB-α signals upon IL1α and TNFα stimuli (HepG2 cells; Erlotinib 1 uM, FIG. 4)	Drug effect on the TRAF6→MAP3k7 reaction (HepG2 specific topology; HepG2 topology, ILP, Erlotinib 1 uM)	Drug effect on the JNK→c-JUN branch (HepG2 specific topology; Erlotinib 1 uM, Sorafenib 3 uM)	Drug effect on downstream reactions of the TGFα branch (TGFα→GRB2→SOS→RAS→PI3K and RAS→RAF1→MEK1/2→ERK1/2) (HepG2 specific topology; Lapatinib 3 uM, Erlotinib 1 uM)	Effect on c-Jun signaling (HepG2 specific topology)	Affinity for the directly upstream JNK1/2 kinases (JNK1/2 kinases)	IL1α- and (IL1α+TGFα)-induced cJUN activity (HepG2 cells; Gefitinib 3 uM, IL1α 10 ng/ml, FIG. 3f)	Activation of cJUN signal induced by the IL1α stimuli, dose response (c-JUN (Ser63))	TGFα induced MEK1/2, ERK1/2, and AKT phosphosignals (HepG2 cells; Lapatinib 3 uM, 45 min before TGFα 100 ng/ml, early response (5 and 25 min), FIG. 3e)	Activation of AKT by the HGF and INS path (HepG2 cells; Lapatinib 3 uM, FIG. 3e)	Drug effect on the PI3K→...→AKT branch (HepG2 specific topology; HepG2 topology, ILP, Lapatinib 3 uM)	HSP27 phosphorylation upon IL1α treatment (HepG2 cells; Sorafenib 3 uM, FIG. 3h)	MEK1 phosphorylation (HepG2 cells; Sorafenib 3 uM, FIG. 3h)	Drug effect on the p38 path (HepG2 specific topology; HepG2 topology, ILP, Sorafenib 3 uM)	Drug effect on the RAF→ERK1/2 reaction (HepG2 specific topology; HepG2 topology, network optimization, Sorafenib 3 uM)	Inhibition of activation of the RAF/MEK/ERK pathway (RAF/MEK/ERK pathway)	Target affinity to p38α (p38α)
C#Cc1cccc(Nc2ncnc3cc(OCCOC)c(OCCOC)cc23)c1 [Erlotinib]	inhibited in an IL1α-dependent but TNFα-independent manner	shows an effect in the TRAF6→MAP3k7 reaction	has the same effects as Gefitinib; also recorded: removal of the JNK→cJUN reaction	has the same effects as Gefitinib	do not affect c-Jun signaling	no medium or high affinity	–	–	–	–	–	–	–	–	–	–	–
COc1cc2ncnc(Nc3ccc(F)c(Cl)c3)c2cc1OCCCN1CCOCC1 [Gefitinib]	–	–	removal of the JNK→c-JUN branch; also recorded: removal of the JNK→cJUN reaction	alters the topology in a very similar pattern as Lapatinib	affects c-Jun signaling as well as EGFR signaling	no medium or high affinity	potent inhibition; also recorded: significant reduction of the cJUN activity; also recorded: previously unknown inhibition of cJUN in the IL1α pathway; also recorded: inhibits signaling downstream the Interleukin-1alpha (IL1α) pathway	can reduce the activation of cJUN signal; also recorded: does not follow a typical dose-response curve; also recorded: reduces cJUN activation	–	–	–	–	–	–	–	–	–
CS(=O)(=O)CCNCc1ccc(-c2ccc3ncnc(Nc4ccc(OCc5cccc(F)c5)c(Cl)c4)c3c2)o1 [Lapatinib]	–	–	–	complete removal of the downstream reactions of the TGFα branch	do not affect c-Jun signaling	–	–	–	blocks	cannot be blocked	not removed	–	–	–	–	–	–
CNC(=O)c1cc(Oc2ccc(NC(=O)Nc3ccc(Cl)c(C(F)(F)F)c3)cc2)ccn1 [Sorafenib]	–	–	blocks the JNK→c-JUN branch; also recorded: removal of the JNK→cJUN reaction	–	–	no medium or high affinity	–	–	–	–	–	complete HSP27 inhibition	reduces but does not block	affects the p38 path; also recorded: inhibition of the pathway downstream of p38	does not remove the RAF→ERK1/2 reaction	does not inhibit activation of the RAF/MEK/ERK pathway in all human tumor cell lines	target affinity
